Assay results as given in the PolyMetriX glass transition set.
± gives the standard deviation of the reports.

SMILES | glass transition temperature [°C]
*c1ccc(C2(c3ccc(-c4cc(-c5ccccc5)c5cc(C6(c7ccc8nc(*)cc(-c9ccccc9)c8c7)c7ccccc7C(=O)c7ccccc76)ccc5n4)cc3)c3ccccc3-c3ccccc32)cc1 (repeat unit) | 405.00
*c1cccc(P(C)(=O)c2cccc(N3C(=O)c4ccc(NC(=O)OCCOc5c(Br)cc(C(C)(C)c6cc(Br)c(OCCOC(=O)Nc7ccc8c(c7)C(=O)N(*)C8=O)c(Br)c6)cc5Br)cc4C3=O)c2)c1 (repeat unit) | 191.00
*c1cccc(N2C(=O)c3ccc(Oc4ccc(S(=O)(=O)c5ccc(Oc6ccc7c(c6)C(=O)N(*)C7=O)cc5)cc4)cc3C2=O)c1 (repeat unit) | 265.00
*c1ccc2c(c1)C(=O)N(c1cccc(Oc3ccc(N4C(=O)c5ccc(-c6c(-c7ccccc7)c(-c7ccccc7)c(-c7ccc(Sc8ccc(-c9c(-c%10ccccc%10)c(-c%10ccccc%10)c(*)c(-c%10ccccc%10)c9-c9ccccc9)cc8)cc7)c(-c7ccccc7)c6-c6ccccc6)cc5C4=O)cc3)c1)C2=O (repeat unit) | 300.00
*CC(*)(C)C(=O)OCCCCCCCCCCOc1ccc(OC(=O)c2ccc(OCCCCCC)cc2)cc1 (repeat unit) | 41.00
*CCN(CCOC(=O)Nc1ccc(Cc2ccc(NC(=O)O*)cc2)cc1)c1ccc(/N=N/c2ccc([N+](=O)[O-])cc2)cc1 (repeat unit) | 136.40
*CCN(CCOC(=O)Nc1ccc(-c2ccc(NC(=O)O*)c(C)c2)cc1C)c1ccc(/N=N/c2ccc([N+](=O)[O-])cc2)cc1 (repeat unit) | 119.50
*CC(*)C(=O)OCCCCCCOc1ccc(C(=O)Oc2ccc(OC)cc2)cc1 (repeat unit) | 29.50
*c1ccc(Oc2ccc(S(=O)(=O)c3ccc(Oc4ccc(-c5nc6ccccc6n5-c5ccc(-n6c(*)nc7ccccc76)cc5)cc4)cc3)cc2)cc1 (repeat unit) | 270.00
*CCCCCCNC(=O)CCc1ccc(CC(=O)N*)cc1 (repeat unit) | 87.00
*CC(*)(C)C(=O)OCCCOc1ccc(-c2ccc(C#N)cc2)cc1 (repeat unit) | 97.00
*CCCCCCOC(=O)C(C(=O)OCCCCCCOc1ccc(-n2on2-c2ccc(O*)cc2)cc1)c1ccccc1 (repeat unit) | 23.00
*CC(*)c1cc(-c2ccc(C(=O)OC3CC(C)CCC3C(C)C)cc2)ccc1-c1ccc(C(=O)OC2CC(C)CCC2C(C)C)cc1 (repeat unit) | 217.50
*Nc1cccc(NC(=O)CCCCC(*)=O)c1 (repeat unit) | 114.2
*c1ccc(Oc2ccc(C3(c4ccc(Oc5ccc(N6C(=O)c7ccc(Oc8c(C)cc(C(C)(C)c9cc(C)c(Oc%10ccc%11c(c%10)C(=O)N(*)C%11=O)c(C)c9)cc8C)cc7C6=O)cc5)cc4)CC4CC3C3CCCC43)cc2)cc1 (repeat unit) | 262.00
*CC(C)(C)COC(=O)c1ccc(C(=O)O*)cc1 (repeat unit) | 68.00
*CCCCCCCCCCCC(=O)Oc1ccc(C(C)(C)c2ccc(C(C)(C)c3ccc(OC(=O)c4ccc5c(c4)C(=O)N(*)C5=O)cc3)cc2)cc1 (repeat unit) | 97.00
*c1cccc(N2C(=O)c3ccc(Oc4ccc(C(C)(C)c5ccc(Oc6ccc7c(c6)C(=O)N(*)C7=O)cc5)cc4)cc3C2=O)c1 (repeat unit) | 217.50
*Oc1ccc(NC(=C(C#N)C#N)c2cccc(C(Nc3ccc(Oc4ccc(NC(=O)c5ccc(C(=O)Nc6ccc(*)cc6)cc5)cc4)cc3)=C(C#N)C#N)c2)cc1 (repeat unit) | 274.00
*CCCCCCCCNC(=O)c1ccc(C(=O)N*)c(Sc2ccccc2)c1 (repeat unit) | 110.00
*C(=O)OCCOC(=O)c1ccc(*)o1 (repeat unit) | 89.0

SMILES | glass transition temperature [°C]
*c1ccc(-c2cnc3ccc(Oc4ccc5ncc(*)nc5c4)cc3n2)cc1 (repeat unit) | 306.00
*CC(*)(C)C(=O)OCCCCCC(=O)Oc1ccc(OC(=O)c2ccc(OCCCC)cc2)cc1 (repeat unit) | 40.00
*c1cccc(N2C(=O)c3ccc(P(=O)(c4ccccc4)c4ccc5c(c4)C(=O)N(*)C5=O)cc3C2=O)c1 (repeat unit) | 323.00
*C(C)C(*)C(=O)OCCC (repeat unit) | 116.00
*CCc1ccc(*)c(C#N)c1 (repeat unit) | 90.00
*Oc1ccc(C2(c3ccc(Oc4ccc(-c5ccc(NC(=O)c6cc(C(=O)Nc7ccc(-c8ccc(*)c(C(F)(F)F)c8)cc7)cc(C(C)(C)C)c6)cc5)cc4C(F)(F)F)cc3)c3ccccc3-c3ccccc32)cc1 (repeat unit) | 278.00
*c1ccc(-c2ccc(-c3ccc(-c4ccc(-c5ccc6c(c5)C(=O)N(c5ccc(Oc7ccc(C(C)(C)c8ccc(Oc9ccc(N%10C(=O)c%11ccc(*)cc%11C%10=O)cc9)cc8)cc7)cc5)C6=O)cc4)cc3)cc2)cc1 (repeat unit) | 236.00
*Oc1cccc(C(F)(F)C(F)(F)C(F)(F)c2cccc(OC(*)=O)c2)c1 (repeat unit) | 46.00
*Oc1ccc(-c2ccc(-c3ccc(Oc4ccc(C(=O)c5cccc(C(=O)c6ccc(*)cc6)c5)cc4)cc3)cc2)cc1 (repeat unit) | 174.00
*Oc1cccc(N(c2ccccc2)c2ccc(-c3ccc(N(c4ccc(/N=N/c5ccc([N+](=O)[O-])cc5)cc4)c4cccc(OC(=O)OCCOCCOC(*)=O)c4)cc3)cc2)c1 (repeat unit) | 111.00
*CCN(*)C(=O)CCCC (repeat unit) | 13.00
*Oc1c(C)c(C)c(NC(=O)c2ccc(C(=O)Nc3ccc(*)cc3)cc2)c(C)c1C (repeat unit) | 333.00
*Oc1ccc(NC(=O)c2cc(C(=O)Nc3ccc(*)cc3)c(C(=O)OCC)cc2C(=O)OCC)cc1 (repeat unit) | 208.1
*OC(=O)OCC1OC(C)(C)OC1COC(=O)OC1COC2C(*)COC12 (repeat unit) | 95.50
*Oc1ccc(NCC(=O)c2ccc(Sc3ccc(C(=O)CNc4ccc(*)cc4)cc3)cc2)cc1 (repeat unit) | 208.00
*CC(C)(C)C1C(=O)N(C(C)C)C(=O)C1* (repeat unit) | 145.00
*Nc1cc([N+](=O)[O-])c(NC(=O)CCCCCCCCC(*)=O)cc1/C=C/c1ccc(N(C)C)cc1 (repeat unit) | 159.00
*CCCCCCCN1C(=O)c2ccc(-c3ccc(-c4ccc5c(c4)C(=O)N(*)C5=O)cc3)cc2C1=O (repeat unit) | 135.00
*c1ccc(Oc2c(C)cc(C(c3cccnc3)c3cc(C)c(Oc4ccc(N5C(=O)CC(Nc6ccc(Cc7ccc(NC8CC(=O)N(*)C8=O)cc7)cc6)C5=O)cc4)c(C)c3)cc2C)cc1 (repeat unit) | 201.00
*Oc1ccc(CC(NC(=O)Cc2ccc(OC(=O)CCCCCCC(*)=O)cc2)C(=O)OCCCCCCCC)cc1 (repeat unit) | 22.00
*Oc1ccc(C2(c3ccc(OC(=O)c4ccc(C(*)=O)cc4)cc3)CCCCC2)cc1 (repeat unit) | 275.00

SMILES | glass transition temperature [°C]
*Oc1ccc(Oc2ccc(NC(=C(C#N)C#N)c3cccc(C(Nc4ccc(*)cc4)=C(C#N)C#N)c3)cc2)cc1 (repeat unit) | 228.00
*CCCCCCCCCCCCNC(=O)c1ccc(C(=O)N*)cc1 (repeat unit) | 130.00
*Oc1ccc(CC(C#N)(Cc2ccc(*)cc2)c2ccccc2)cc1 (repeat unit) | 143.00
*c1cc(CCOC(=O)NCCCC)c(*)s1 (repeat unit) | 67.50
*O[Si](C)(C)CCCCCCOC(=O)C(C)Oc1ccc(OC(=O)c2ccc(-c3ccc(OCCCCCCCCCC[Si](*)(C)C)cc3)cc2)cc1[N+](=O)[O-] (repeat unit) | 20.00
*c1ccc(-c2ccc(-c3cc(CCCCCCCC)c(-c4ccc(-c5sc(*)cc5CCCCCCCC)cc4)s3)cc2)cc1 (repeat unit) | 0.60
*Oc1ccc(OC(=O)c2ccc(-c3ccc(C(*)=O)cc3)cc2-c2ccccc2)c2ccccc12 (repeat unit) | 165.00
*C1C(=O)N(CCCCCCCCOc2ccc(-c3ccc(C#N)cc3)cc2)C(=O)C1* (repeat unit) | 43.00
*O[Si](*)(C)CCCCCCCCCCCn1c2ccccc2c2ccccc21 (repeat unit) | -45.00
*CC(C)(CC)COC(=O)c1ccc(C(=O)O*)cc1 (repeat unit) | 63.00
*C(=O)c1ccc2c(c1)C(=O)N(c1cccc(Cc3cccc(N4C(=O)c5ccc(*)cc5C4=O)c3)c1)C2=O (repeat unit) | 249.50 ± 20
*c1cccc(N2C(=O)c3ccc(Oc4ccc5ccc(Oc6ccc7c(c6)C(=O)N(*)C7=O)cc5c4)cc3C2=O)c1 (repeat unit) | 254.00
*/C=C/CC* (repeat unit) [1,4-polybutadiene] | -91.00 ± 5
*CCN(*)CCOCCOC (repeat unit) | 16.00
*CC(CC)(CC)CS* (repeat unit) | -36.2
*C(=O)c1ccc2c(c1)C(=O)N(c1ccc(S(=O)(=O)c3ccc(NC(=O)c4cccc(C(=O)Nc5ccc(S(=O)(=O)c6ccc(N7C(=O)c8ccc(*)cc8C7=O)cc6)cc5)c4)cc3)cc1)C2=O (repeat unit) | 226.00
*/C=C(/*)C(CCCCCCC)[Si](C)(C)C (repeat unit) | 150.00
*O[Si](C)(C)O[Si](C)(C)O[SiH](*)O[Si](C)(C)C=C (repeat unit) | -68.00
*c1ccc(-c2ccc(-c3ccc([Si](CCCC)(CCCC)[Si](*)(CCCC)CCCC)s3)s2)s1 (repeat unit) | -5.00
*c1ccc2c(c1)C(=O)N(c1ccc(C3(c4ccc(N5C(=O)c6ccc(C(*)(C(F)(F)F)C(F)(F)F)cc6C5=O)c(C(C)C)c4)c4ccccc4-c4ccccc43)cc1C(C)C)C2=O (repeat unit) | 299.00
